Key:
Format in all cases: in vivo
[1] = system: egg of spider mite (Tetranychuscinnabarinus); test: Greenhouse test against egg of spider mite, spray on bean leaf; settings: eggs, after 5 days
Protocol: Two true leaves of bean plants were taken and one true leaf was removed. Then ten healthy female adult spider mites were put into the true leaf. The adult spider mites were removed after 24 h and the eggs were investigated. The solution of certain concentrations of test compounds was sprayed by using a sprinkler. Three replicates were set for each treatment. The untreated eggs were all incubated after 5 days. The unincubation of treated eggs in leaf was observed, and incubation inhibition rate of the eggs was determined.

[2] = system: citrus red mite (Panonychuscitri); test: Field trial against citrus red mite (Jiangxi, China)
Protocol: The trial was carried out in a 2-year-old Shatang orange orchard in Ganzhou city Jiangxi province, trifoliate orange trees were selected as stocks, the intervals between two plants was 1.50 × 2.50 m, the average height was 1.45 m and the crown width was 1.30 m. Two trees were selected in each plot, with random arrangement and 4 replications. Compound 1 (10% SC) was set at three different doses (100 mg/L, 50 mg/L and 25 mg/L), spirodiclofen (29% SC) was set at one dose (50 mg/L), and pyridaben (20% EC) was set at one dose (100 mg/L). MatabiSupergreen 16 Knapsack Sprayer 16 Liter was used to spray evenly with 2L of spraying volume for each plant. The plants were treated once in May at that time, adults, nymphs, eggs of citrus red mite all existed, with adults/eggs = 1/1.2. During the day the plants were treated, and the weather was good with the average temperature at 24°C. The first three days after treatment were all clear days. The number of mites was investigated before treatment and on the 1st, 3rd, 7th, 14th, 22nd and 28th day after treatment respectively. Two trees of each plot were investigated according to the five directions of the tree crown (east, south, west, north and central), 5 leaves in each direction were investigated to calculate the number of living mites, with 50 leaves each plot. The decline rate of mite population and corrected efficacy were calculated according to formulas below: The decline rate of mite population(%) = [(the average number of mite on each leaf; before treatment−the average number of mite on each leaf after treatment)/the; average number of mite on each leaf before treatment] × 100. [formula] Corrected efficacy(%) = [(the decline rate of mite population in treated area−the; decline rate of mite population in untreated area)/(100−the decline rate of mite; population in untreated area)] × 100. [formula]

[3] = system: deutonymph of spider mite (Tetranychuscinnabarinus); test: Greenhouse test against deutonymph of spider mite, spray on bean leaves; settings: after 72 h
Protocol: Ten healthy female adult spider mites (Tetranychuscinnabarinus) were put into two true leaves of bean plants. The adult spider mites were removed after 24 h and the eggs were to be continued incubating. After ten days, the number of deutonymph were investigated and recorded. The solution of certain concentrations of test compounds was sprayed by using a sprinkler. Three replicates were set for each treatment. Then the deutonymph of spider mites were maintained in standard observation room. After 72 h, the survival mites in each leaf were observed, and mortality of the mites was determined.

Row | Compound | Incubation inhibition rate (%) ([1]; 1mg/L) | Incubation inhibition rate (%) ([1]; 5mg/L) | Incubation inhibition rate (%) [1] [%] | Corrected efficacy (%) ([2]; 50 mg/L, The 1st day after treatment) | Corrected efficacy (%) ([2]; 50 mg/L, The 3rd day after treatment) | Corrected efficacy (%) ([2]; 50 mg/L, The 7th day after treatment) | Corrected efficacy (%) ([2]; 50 mg/L, The 14th day after treatment) | Corrected efficacy (%) ([2]; 50 mg/L, The 22nd day after treatment) | Corrected efficacy (%) ([2]; 50 mg/L, The 28th day after treatment) | Mortality (%) ([3]; 0.25mg/L) | Mortality (%) ([3]; 0.5mg/L) | Mortality (%) ([3]; 1mg/L) | Corrected efficacy (%) ([2]; 100 mg/L, The 1st day after treatment) | Corrected efficacy (%) ([2]; 100 mg/L, The 3rd day after treatment) | Corrected efficacy (%) ([2]; 100 mg/L, The 7th day after treatment) | Corrected efficacy (%) ([2]; 100 mg/L, The 14th day after treatment) | Corrected efficacy (%) ([2]; 100 mg/L, The 22nd day after treatment) | Corrected efficacy (%) ([2]; 100 mg/L, The 28th day after treatment)
1 | CCC(C)(C)C(=O)OC1=C(c2ccc(Cl)cc2Cl)C(=O)OC12CCCCC2 [spirodiclofen] | 37 | 100 | 13 | 20 | 48 | 63 | 80 | 71 | 70 | – | – | – | – | – | – | – | – | –
2 | CC(C)(C)c1ccc(CSc2cnn(C(C)(C)C)c(=O)c2Cl)cc1 [pyridaben] | – | – | – | – | – | – | – | – | – | 25 | 60 | 84 | 0 | 65 | 90 | 93 | 92 | 95

— EP3366672B9, “BIPHENYL COMPOUND AND APPLICATION THEREOF” (Shenyang Sinochem Agrochemicals R & D Co., Ltd., priority 2015, dated 2017)
